The target of this experiment is Aldo-keto reductase family 1 member B1 (Rattus norvegicus, UniProt P07943). The experiment in a line: Inhibition of aldose reductase in rat lens homogenates by fluorophotometer.

The term IC50 denotes the concentration that gives 50% inhibition. A lower IC50 goes with inhibition by little substance.

`CC(=O)O[C@H]1[C@H](Oc2c(-c3ccc(O)c(O)c3)oc3cc(O)cc(=O)c-3c2O)O[C@H](CO[C@@H]2O[C@@H](C)[C@H](O)[C@@H](O)[C@H]2O)[C@@H](O)[C@@H]1O` [3-O-alpha-L-rhamnopyranosyl(1->6)-2''-O-acetyl-beta-D-glucopyranoside] had a concentration for half-maximal inhibition (IC50) of 18 µM.

On to `C[C@@H]1O[C@@H](O[C@H]2[C@H](Oc3c(-c4ccc(O)c(O)c4)oc4cc(O)cc(=O)c-4c3O)O[C@H](CO)[C@H](O)[C@@H]2O)[C@H](O)[C@H](O)[C@H]1O` [quercetin 3-O-neohesperidoside], for which the IC50 was 18 µM.
